Columns and labels:
[1] = In vitro cytotoxicity assay (MTT cell viability) in HepG2 cells; type: cell-based, human; settings: human
How it was run: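 HepG2 cells incubated 7 days at 37 °C, 5% CO2 with compounds from 30 μM to 1.0 nM (8 half-log dilutions). Viability read as MTT formazan absorbance at 492 nm, normalised to vehicle controls; CC50 from 4-parameter non-linear regression.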

[2] = system: HBV replication in HepAD38 cells; assay: Anti-HBV replication assay in HepAD38 cells (QPCR of extracellular HBV DNA); type: cell-based, HBV (genotype D, serotype ayw); settings: Hepatitis B virus, 168 h, 7 days incubation, extracellular HBV DNA by QPCR, read-out: Anti-HBV EC50
How it was run: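 HepAD38 cells (HepG2 carrying tet-repressible HBV genotype D genome) induced by tetracycline withdrawal, treated 7 days at 37 °C with compound ([…], 1-log10 dilutions). Extracellular HBV DNA quantified by QPCR against a standard curve, normalised to DMSO; EC50 from 4-parameter fit.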

Cc1cc(NC(=O)c2c(C)c(C(=O)C(=O)N[C@@H](CO)[C@H](C)O)n(C)c2C)ccc1F [Example 103, 5-(2-(((2S,3S)-1,3-dihydroxybutan-2-yl)amino)-2-oxoacetyl)-N-(4-fluoro-3-methylphenyl)-1,2,4-trimethyl-1H-pyrrole-3-carboxamide]
CC50 at 7 days [1]: > 30000 nM | EC50 [2]: < 50 nM

Cc1c(C(=O)Nc2ccc(F)c(F)c2)c2n(c1C(=O)C(=O)Nc1ccc(B(O)O)cc1)CCCC2 [Example 738, (4-(2-(1-((3,4-difluorophenyl)carbamoyl)-2-methyl-5,6,7,8-tetrahdyroindolizin-3-yl)-2-oxoacetamido)phenyl)boronic acid]
CC50 at 7 days [1]: > 30000 nM | EC50 [2]: 50 to 499 nM

Cc1cc(NC(=O)c2c(C)c(C(=O)C(=O)NC(C)(C)C)n(CCF)c2C)cnc1F [Example 225, 5-(2-(tert-butylamino)-2-oxoacetyl)-N-(6-fluoro-5-methylpyridin-3-yl)-1-(2-fluoroethyl)-2,4-dimethyl-1H-pyrrole-3-carboxamide]
CC50 at 7 days [1]: > 30000 nM | EC50 [2]: 500 to 1000 nM

Cc1noc([C@@H](C)NC(=O)C(=O)c2c(Cl)c(C(=O)Nc3ccnc(F)c3)c3n2CCCC3)n1 [Example 510, (R)-2-chloro-N-(2-fluoropyridin-4-yl)-3-(2-((1-(3-methyl-1,2,4-oxadiazol-5-yl)ethyl)amino)-2-oxoacetyl)-5,6,7,8-tetrahydroindolizine-1-carboxamide]
CC50 at 7 days [1]: > 30000 nM | EC50 [2]: > 1000 nM

Cc1cc(NC(=O)c2c(C)c(C(=O)C(=O)NC3(C)CCN(C(=O)Nc4ccc(F)c(F)c4)CC3)n(C)c2C)ccc1F [Example 707, N-(3,4-difluorophenyl)-4-(2-(4-((4-fluoro-3-methylphenyl)carbamoyl)-1,3,5-trimethyl-1H-pyrrol-2-yl)-2-oxoacetamido)-4-methylpiperidine-1-carboxamide]
CC50 at 7 days [1]: 500 to 4990 nM | EC50 [2]: < 50 nM

Cc1c(C(=O)Nc2ccc(F)c(Cl)c2)c2n(c1C(=O)C(=O)NC1(CO)CCC1)CCCC2 [Example 452, N-(3-chloro-4-fluorophenyl)-3-(2-((1-(hydroxymethyl)cyclobutyl)amino)-2-oxoacetyl)-2-methyl-5,6,7,8-tetrahydroindolizine-1-carboxamide]
CC50 at 7 days [1]: 5000 to 30000 nM | EC50 [2]: < 50 nM

Cc1cnc(NC(=O)c2c(C)c(C(=O)C(=O)NC(C)(C)CO)n3c2CCCC3)s1 [Example 758, 3-(2-((1-hydroxy-2-methylpropan-2-yl)amino)-2-oxoacetyl)-2-methyl-N-(5-methylthiazol-2-yl)-5,6,7,8-tetrahydroindazoline-1-carboxamide]
CC50 at 7 days [1]: > 30000 nM | EC50 [2]: 50 to 499 nM

CO[C@H]1CC[C@@H](NC(=O)C(=O)c2c(C)c(C(=O)Nc3cnc(F)c(C)c3)c(C)n2C)CC1 [Example 344, N-(6-fluoro-5-methylpyridin-3-yl)-5-(2-(((1s,4s)-4-methoxycyclohexyl)amino)-2-oxoacetyl)-1,2,4-trimethyl-1H-pyrrole-3-carboxamide]
CC50 at 7 days [1]: > 30000 nM | EC50 [2]: 50 to 499 nM

Cc1cc(NC(=O)c2c(C)c(C(=O)C(=O)N[C@H]3CCCN(S(C)(=O)=O)C3)n(C)c2C)ccc1F [Example 642, (S)-N-(4-fluoro-3-methylphenyl)-1,2,4-trimethyl-5-(2-((1-(methylsulfonyl)piperidin-3-yl)amino)-2-oxoacetyl)-1H-pyrrole-3-carboxamide]
CC50 at 7 days [1]: 5000 to 30000 nM | EC50 [2]: < 50 nM

Cc1cc(NC(=O)c2c(C)c(C(=O)C(=O)N[C@@H](C)CO)n(C)c2C)ccc1F [Example 217, (S)-N-(4-ffluoro-3-methylphenyl)-5-(2-((1-hydroxypropan-2-yl)amino)-2-oxoacetyl)-1,2,4-trimethyl-1H-pyrrole-3-carboxamide]
CC50 at 7 days [1]: > 30000 nM | EC50 [2]: < 50 nM

Cc1cc(NC(=O)c2c(C)c(C(=O)C(=O)NC3(C(F)(F)F)CCOCC3)n(C)c2C)cnc1F [Example 163, N-(6-fluoro-5-methylpyridin-3-yl)-1,2,4-trimethyl-5-(2-oxo-2-((4-(trifluoromethyl)tetrahydro-2H-pyran-4-yl)amino)acetyl)-1H-pyrrole-3-carboxamide]
CC50 at 7 days [1]: > 30000 nM | EC50 [2]: > 1000 nM

Cc1noc([C@@H](C)NC(=O)C(=O)c2c(C)c(C(=O)Nc3cnc(F)c(C)c3)c3n2CCCC3)n1 [Example 472, (R)-N-(6-fluoro-5-methylpyridin-3-yl)-2-methyl-3-(2-((1-(3-methyl-1,2,4-oxadiazol-5-yl)ethyl)amino)-2-oxoacetyl)-5,6,7,8-tetrahydroindolizine-1-carboxamide]
CC50 at 7 days [1]: > 30000 nM | EC50 [2]: > 1000 nM

Cc1c(C(=O)Nc2ccc(F)c(Cl)c2)c(Cl)c(C(=O)C(=O)NC(C)(C)C)n1C [Example 370, 5-(2-(tert-butylamino)-2-oxoacetyl)-4-chloro-N-(3-chloro-4-fluorophenyl)-1,2-dimethyl-1H-pyrrole-3-carboxamide]
CC50 at 7 days [1]: > 30000 nM | EC50 [2]: < 50 nM

Cc1noc([C@H](C)NC(=O)C(=O)c2c(Cl)c(C(=O)Nc3cnc(F)c(C)c3)c3n2CCC3)n1 [Example 736, (S)-6-chloro-N-(6-luoro-5-methylpyridin-3-yl)-5-(2-((1-(3-methyl-1,2,4-oxadiazol-5-yl)ethyl)amino)-2-oxoacetyl)-2,3-dihydro-1H-pyrrolizine-7-carboxamide]
CC50 at 7 days [1]: 5000 to 30000 nM | EC50 [2]: < 50 nM

Cc1cc(NC(=O)c2c(C)c(C(=O)C(=O)N[C@H]3c4ccccc4C[C@@H]3O)n(C)c2C)ccc1F [Example 259, N-(4-fluoro-3-methylphenyl)-5-(2-(((1S,2S)-2-hydroxy-2,3-dihydro-1H-inden-1-yl)amino)-2-oxoacetyl)-1,2,4-trimethyl-1H-pyrrole-3-carboxamide]
CC50 at 7 days [1]: > 30000 nM | EC50 [2]: < 50 nM

CC(=O)N1C[C@@H]2[C@H](C1)[C@H]2NC(=O)C(=O)c1c(C)c(C(=O)Nc2ccc(F)c(C)c2)c(C)n1C [Example 643, 5-(2-(((1R,5S,6s)-3-acetyl-3-azabicyclo[3.1.0]hexan-6-yl)amino)-2-oxoacetyl)-N-(4-fluoro-3-methylphenyl)-1,2,4-trimethyl-1H-pyrrole-3-carboxamide]
CC50 at 7 days [1]: > 30000 nM | EC50 [2]: 50 to 499 nM

Cc1cc(NC(=O)c2c(C)c(C(=O)C(=O)NC3CCNCC3)n(C)c2C)ccc1F [Example 233, N-(4-fluoro-3-methylphenyl)-1,2,4-trimethyl-5-(2-oxo-2-(piperidin-4-ylamino)acetyl)-1H-pyrrole-3-carboxamide]
CC50 at 7 days [1]: > 30000 nM | EC50 [2]: 50 to 499 nM

Cc1c(C(=O)Nc2cccc(Cl)c2)c(C)n(C)c1C(=O)C(=O)N[C@@H]1CCC[C@@H](O)C1 [Example 689, N-(3-chlorophenyl)-5-(2-(((1R,3R)-3-hydroxycyclohexyl)amino)-2-oxoacetyl)-1,2,4-trimethyl-1H-pyrrole-3-carboxamide]
CC50 at 7 days [1]: > 30000 nM | EC50 [2]: < 50 nM

Cc1c(C(=O)Nc2ccc(F)c(Cl)c2)c(C)n(C)c1C(=O)C(=O)NC(C)(C)CO [Example 189, N-(3-chloro-4-fluorophenyl)-5-(2-((1-hydroxy-2-methylpropan-2-yl)amino)-2-oxoacetyl)-1,2,4-trimethyl-1H-pyrrole-3-carboxamide]
CC50 at 7 days [1]: > 30000 nM | EC50 [2]: < 50 nM

Cc1nc2c(s1)C(NC(=O)C(=O)c1c(C)c(C(=O)Nc3cnc(F)c(C)c3)c(C)n1C)CCC2 (stereo not shown) [Example 606, N-(6-fluoro-5-methylpyridin-3-yl)-1,2,4-trimethyl-5-(2-((2-methyl-4,5,6,7-tetrahydrobenzo[d]thiazol-7-yl)amino)-2-oxoacetyl)-1H-pyrrole-3-carboxamide]
CC50 at 7 days [1]: > 30000 nM | EC50 [2]: < 50 nM

COC(=O)[C@@H](NC(=O)C(=O)c1c(C)c(C(=O)Nc2ccc(F)c(C)c2)c(C)n1C)[C@H](C)O [Example 45, methyl (2-(4-((4-fluoro-3-methylphenyl)carbamoyl)-1,3,5-trimethyl-1H-pyrrol-2-yl)-2-oxoacetyl)-L-allothreoninate]
CC50 at 7 days [1]: > 30000 nM | EC50 [2]: 500 to 1000 nM

Cc1csc(NC(=O)C(=O)c2c(C)c(C(=O)Nc3cnc(F)c(C)c3)c(C)n2C)n1 [Example 342, N-(6-fluoro-5-methylpyridin-3-yl)-1,2,4-trimethyl-5-(2-((4-methylthiazol-2-yl)amino)-2-oxoacetyl)-1H-pyrrole-3-carboxamide]
CC50 at 7 days [1]: > 30000 nM | EC50 [2]: 500 to 1000 nM

Cc1nc2c(s1)CCCC2NC(=O)C(=O)c1c(C)c(C(=O)Nc2ccc(F)c(C)c2)c(C)n1C (stereo not shown) [Example 625, N-(4-fluoro-3-methylphenyl)-1,2,4-trimethyl-5-(2-((2-methyl-4,5,6,7-tetrahydrobenzo[d]thiazol-4-yl)amino)-2-oxoacetyl)-1H-pyrrole-3-carboxamide]
CC50 at 7 days [1]: > 30000 nM | EC50 [2]: < 50 nM

Cc1cc(NC(=O)c2c(C)c(C(=O)C(=O)N[C@@H]3CCC[C@@H]3O)n(C)c2Cl)ccc1F [Example 390, 2-chloro-N-(4-fluoro-3-methylphenyl)-5-(2-(((1R,2S)-2-hydroxycyclopentyl)amino)-2-oxacetyl)-1,4-dimethyl-1H-pyrrole-3-carboxamide]
CC50 at 7 days [1]: > 30000 nM | EC50 [2]: 50 to 499 nM

Cc1c(C(=O)Nc2ccnc(F)c2)c(C)n(C)c1C(=O)C(=O)NC(C)(C)C(F)(F)F [Example 172, N-(2-fluoropyridin-4-yl)-1,2,4-trimethyl-5-(2-oxo-2-((1,1,1-trifluoro-2-methylpropan-2-yl)amino)acetyl)-1H-pyrrole-3-carboxamide]
CC50 at 7 days [1]: > 30000 nM | EC50 [2]: < 50 nM

Cc1cc(NC(=O)c2c(C)c(C(=O)C(=O)NCc3cnc(N)s3)n(C)c2C)cnc1F [Example 171, 5-(2-(((2-aminothiazol-5-yl)methyl)maino)-2-oxoacetyl)-N-(6-fluoro-5-methylpyridin-3-yl)-1,2,4-trimethyl-1H-pyrrole-3-carboxamide]
CC50 at 7 days [1]: > 30000 nM | EC50 [2]: < 50 nM

From patent US20190375708A1 (VenatoRx Pharmaceuticals, Inc., priority 2018, published 2019)
